The values that follow come from ChEMBL document CHEMBL1909046, “DrugMatrix in vitro pharmacology data”.

In experiment [1] the target is T1, Interstitial collagenase (Homo sapiens, UniProt P03956).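 Note: MMP-1 enzyme inhibition assay using a peptide substrate; in other assays of this panel Not Active means under 50% inhibition at 10 µM.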
T1 sequence (P03956 whole entry): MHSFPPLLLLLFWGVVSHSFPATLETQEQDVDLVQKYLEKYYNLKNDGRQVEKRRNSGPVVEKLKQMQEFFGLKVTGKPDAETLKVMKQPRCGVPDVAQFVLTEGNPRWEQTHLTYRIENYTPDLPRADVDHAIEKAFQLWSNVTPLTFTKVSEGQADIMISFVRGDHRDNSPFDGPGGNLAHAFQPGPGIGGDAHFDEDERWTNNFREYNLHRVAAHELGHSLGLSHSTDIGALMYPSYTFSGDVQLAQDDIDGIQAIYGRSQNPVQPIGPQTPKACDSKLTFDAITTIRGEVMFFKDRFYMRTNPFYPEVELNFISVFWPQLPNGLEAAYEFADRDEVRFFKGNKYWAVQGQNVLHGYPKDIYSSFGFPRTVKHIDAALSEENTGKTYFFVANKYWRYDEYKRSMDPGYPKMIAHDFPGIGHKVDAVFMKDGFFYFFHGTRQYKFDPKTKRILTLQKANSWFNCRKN
The format is tissue-based, Rheumatoid synovial fibroblasts.

Experiment [2] addresses Prostaglandin G/H synthase 1 (Homo sapiens, UniProt P23219). Briefly: biochemical. Format: tissue-based, Platelet.
The target in experiment [3] is T2, C-X-C chemokine receptor type 1 (Homo sapiens, UniProt P25024). Note: in other assays of this panel Not Active means under 50% inhibition at 10 µM.
T2 sequence (P25024 whole entry): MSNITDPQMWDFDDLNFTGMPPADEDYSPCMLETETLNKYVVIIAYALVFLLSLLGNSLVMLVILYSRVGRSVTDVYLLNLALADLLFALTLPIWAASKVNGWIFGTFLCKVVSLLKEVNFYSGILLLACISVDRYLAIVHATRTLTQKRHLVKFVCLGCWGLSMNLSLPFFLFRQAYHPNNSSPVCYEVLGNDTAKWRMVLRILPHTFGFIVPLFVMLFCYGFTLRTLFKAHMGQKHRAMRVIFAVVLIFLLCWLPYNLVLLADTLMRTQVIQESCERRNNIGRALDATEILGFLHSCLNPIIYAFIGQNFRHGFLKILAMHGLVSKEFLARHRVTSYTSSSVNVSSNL

For experiment [4], the target named is T3, Leukotriene C4 synthase (Cavia porcellus, UniProt A6XA80).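 Note: enzyme inhibition assay of leukotriene C4 synthase, using LTA4 as the substrate; in other assays of this panel Not Active means under 50% inhibition at 10 µM.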
T3 sequence (A6XA80 whole entry): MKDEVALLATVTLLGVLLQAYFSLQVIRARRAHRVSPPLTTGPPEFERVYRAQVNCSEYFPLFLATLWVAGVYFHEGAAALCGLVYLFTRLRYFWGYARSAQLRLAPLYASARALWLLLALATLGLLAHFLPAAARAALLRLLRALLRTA
The format is tissue-based, Lung.

The target of experiment [5] is D(1A) dopamine receptor (Homo sapiens, UniProt P21728). Put plainly: DRUGMATRIX: Dopamine D1 radioligand binding (ligand: [3H] SCH-23390). The format is cell membranes, CHO, Membrane. As to conditions: Not Active = under 50% inhibition at 10 µM.
Sequence of D(1A) dopamine receptor (P21728 whole entry): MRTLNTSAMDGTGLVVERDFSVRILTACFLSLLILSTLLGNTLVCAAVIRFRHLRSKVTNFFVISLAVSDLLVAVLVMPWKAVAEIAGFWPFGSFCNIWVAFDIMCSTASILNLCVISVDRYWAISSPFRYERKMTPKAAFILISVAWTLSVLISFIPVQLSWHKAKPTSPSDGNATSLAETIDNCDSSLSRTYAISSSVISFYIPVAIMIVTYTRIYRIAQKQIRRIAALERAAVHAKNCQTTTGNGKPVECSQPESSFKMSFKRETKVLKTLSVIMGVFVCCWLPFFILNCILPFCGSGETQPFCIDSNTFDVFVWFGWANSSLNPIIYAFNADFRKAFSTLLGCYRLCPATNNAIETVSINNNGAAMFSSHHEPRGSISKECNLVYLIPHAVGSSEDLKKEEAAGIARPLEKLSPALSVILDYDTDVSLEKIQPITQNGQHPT
Experiment [6] deals with T4, C-X-C chemokine receptor type 2 (Homo sapiens, UniProt P25025).
T4 sequence (P25025 whole entry): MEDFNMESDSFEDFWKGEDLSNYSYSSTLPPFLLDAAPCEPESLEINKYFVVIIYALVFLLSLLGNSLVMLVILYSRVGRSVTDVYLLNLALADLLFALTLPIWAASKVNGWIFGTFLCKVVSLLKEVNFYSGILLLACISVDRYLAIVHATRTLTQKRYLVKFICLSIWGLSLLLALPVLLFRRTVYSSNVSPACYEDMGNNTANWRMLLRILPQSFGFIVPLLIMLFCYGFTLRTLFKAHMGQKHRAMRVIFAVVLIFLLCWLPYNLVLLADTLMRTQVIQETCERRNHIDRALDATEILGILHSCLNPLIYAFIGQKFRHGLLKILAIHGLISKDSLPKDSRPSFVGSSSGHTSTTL
The format is cell membranes, Membrane. As to conditions: cho-k1.

A short description of experiment [7]: DRUGMATRIX: Imidazoline I2, Central radioligand binding (ligand: [3H] Idazoxan). Format: cell membranes, Rattus norvegicus, Wistar, Cerebral cortex, Membrane. The conditions noted are these: Not Active = under 50% inhibition at 10 µM.

Sequence of Prostaglandin G/H synthase 1 (P23219 whole entry): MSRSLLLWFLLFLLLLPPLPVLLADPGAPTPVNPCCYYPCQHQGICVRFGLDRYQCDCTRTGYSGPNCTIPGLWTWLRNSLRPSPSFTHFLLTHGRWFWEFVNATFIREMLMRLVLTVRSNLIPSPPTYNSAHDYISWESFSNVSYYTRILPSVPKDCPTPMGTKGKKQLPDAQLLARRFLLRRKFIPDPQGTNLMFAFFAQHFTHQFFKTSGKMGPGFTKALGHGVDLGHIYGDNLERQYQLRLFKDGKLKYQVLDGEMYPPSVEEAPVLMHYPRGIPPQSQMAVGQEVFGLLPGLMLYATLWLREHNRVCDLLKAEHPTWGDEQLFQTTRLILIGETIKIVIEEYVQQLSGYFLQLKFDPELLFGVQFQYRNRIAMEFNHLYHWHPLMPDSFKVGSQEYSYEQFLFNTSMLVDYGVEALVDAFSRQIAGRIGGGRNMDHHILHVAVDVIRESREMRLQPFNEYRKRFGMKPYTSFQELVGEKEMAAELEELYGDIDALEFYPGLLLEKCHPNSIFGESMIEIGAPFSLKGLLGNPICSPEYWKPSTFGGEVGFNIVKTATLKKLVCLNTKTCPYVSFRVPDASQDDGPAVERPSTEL

Consider `C=C1/C(=C\C=C2/CCC[C@]3(C)[C@@H]([C@H](C)CCCC(C)C)CC[C@@H]23)C[C@@H](O)C[C@@H]1O` [ALFACALCIDOL], for which the half-maximal inhibitory concentration (IC50) entry in experiment [1], in experiment [2] (platelet), in experiment [3], in experiment [4], in experiment [5] (cho) and in experiment [6] was “Not Active” in each case. For the same compound, the IC50 (in general, the point on the concentration scale where inhibition reaches its midpoint) in experiment [7] is listed as “Not Active”. In addition, the Ki (in general, the dissociation constant of the complex between target and ligand, obtained from inhibition or displacement) in experiment [7] is reported as “Not Active”.
In the case of `CCCCCC[C@H]1C(=O)O[C@H](C)[C@H](NC(=O)c2cccc(NC=O)c2O)C(=O)O[C@@H](C)[C@@H]1OC(=O)CC(C)C` [ANTIMYCIN A], the IC50 entry in experiment [1], in experiment [2] (platelet), in experiment [3], in experiment [4], in experiment [5] (cho) and in experiment [6] was “Not Active” throughout. Further, the IC50 entry in experiment [7] is reported as “Not Active”. Also, in experiment [7], the Ki entry is reported as “Not Active”.
In the case of `C[C@@H]1CC[C@H]2[C@@H](C)C(=O)O[C@@H]3O[C@@]4(C)CC[C@@H]1[C@]32OO4` [ARTEMISININ], the half-inhibitory concentration (IC50) entry in experiment [1], in experiment [2] (platelet), in experiment [3], in experiment [4], in experiment [5] (cho) and in experiment [6] was “Not Active” in each case. Also, the IC50 result in experiment [7] is “Not Active”. For the same compound, in experiment [7], the Ki result is “Not Active”.
With `CO[C@H]1[C@@H](O)[C@H](N)[C@@H](O[C@H]2O[C@H]([C@H](C)N)CC[C@H]2N)[C@H](O)[C@@H]1N(C)C(=O)CN` [ASTROMICIN], the concentration for half-maximal inhibition (IC50) result in experiment [1], in experiment [2] (platelet), in experiment [3], in experiment [4], in experiment [5] (cho) and in experiment [6] was “Not Active” in each case. In experiment [7], the IC50 entry is given as “Not Active”. For the same compound, in experiment [7], the inhibitory constant (Ki) entry is given as “Not Active”.
For `[N-]=[N+]=CC(=O)OC[C@H](N)C(=O)O` [AZASERINE], the IC50 entry in experiment [1], in experiment [2] (platelet), in experiment [3], in experiment [4], in experiment [5] (cho) and in experiment [6] was “Not Active” in each case. Moreover, the IC50 result in experiment [7] was “Not Active”. In experiment [7], the Ki result is listed as “Not Active”.
Regarding `CC[C@H]1OC(=O)[C@H](C)[C@@H](O[C@H]2C[C@@](C)(OC)[C@@H](O)[C@H](C)O2)[C@H](C)[C@@H](O[C@@H]2O[C@H](C)C[C@H](N(C)C)[C@H]2O)[C@](C)(O)C[C@@H](C)CN(C)[C@H](C)[C@@H](O)[C@]1(C)O` [AZITHROMYCIN], the IC50 entry in experiment [1], in experiment [2] (platelet), in experiment [3], in experiment [4], in experiment [5] (cho) and in experiment [6] was “Not Active” each time. Also, in experiment [7], the IC50 entry is given as “Not Active”. Moreover, the Ki result in experiment [7] is given as “Not Active”.
Regarding `CCc1oc2ccccc2c1C(=O)c1cc(Br)c(O)c(Br)c1` [BENZBROMARONE], the concentration for half-maximal inhibition (IC50) result in experiment [1], in experiment [2] (platelet), in experiment [3], in experiment [4], in experiment [5] (cho) and in experiment [6] was “Not Active” in each case. The IC50 result in experiment [7] is given as “Not Active”. For the same compound, the inhibitory constant (Ki) result in experiment [7] is given as “Not Active”.
Regarding `O=c1cc(-c2ccccc2)oc2ccc3ccccc3c12` [BETA-NAPHTHOFLAVONE], the IC50 result in experiment [1], in experiment [2] (platelet), in experiment [3], in experiment [4], in experiment [5] (cho) and in experiment [6] was “Not Active” throughout. Further, the IC50 entry in experiment [7] was “Not Active”. Also, the Ki result in experiment [7] is recorded as “Not Active”.
For the compound `CC(C)C[C@H]1C(=O)N2CCC[C@H]2[C@]2(O)O[C@](NC(=O)[C@@H]3C=C4c5cccc6[nH]c(Br)c(c56)C[C@H]4N(C)C3)(C(C)C)C(=O)N12` [BROMOCRIPTINE], the IC50 result in experiment [1] was “Not Active”; in experiment [2] (platelet), “Not Active”; in experiment [3], “Not Active”; in experiment [4], “Not Active”; in experiment [5] (read-out: IC50), 2890 nM; in experiment [6], “Not Active”. In addition, in experiment [7] (read-out: IC50), the concentration for half-maximal inhibition (IC50) was found to be 53 nM. Further, the Ki in experiment [5] (read-out: Ki) was 1440 nM; in experiment [7] (read-out: Ki) it was 35 nM.
As for `CS(=O)(=O)OCCCCOS(C)(=O)=O` [BUSULFAN], the IC50 entry in experiment [1], in experiment [2] (platelet), in experiment [3], in experiment [4], in experiment [5] (cho) and in experiment [6] was “Not Active” in each case. The IC50 entry in experiment [7] is listed as “Not Active”. Besides, the Ki result in experiment [7] is “Not Active”.
Turning to `O=C(/C=C/c1ccc(O)c(O)c1)OCCc1ccccc1` [CAFFEIC ACID PHENETHYL ESTER], the IC50 entry was “Not Active” in experiment [1]; 833 nM in experiment [2] (read-out: IC50); “Not Active” in experiment [3]; “Not Active” in experiment [4]; “Not Active” in experiment [5] (cho); “Not Active” in experiment [6]. Further, the IC50 result in experiment [7] is “Not Active”. Besides, the Ki result in experiment [7] is reported as “Not Active”.
For the compound `COc1cc(CNC(=O)CCCC/C=C/C(C)C)ccc1O` [CAPSAICIN], the IC50 entry was “Not Active” in experiment [1]; 1550 nM in experiment [2] (read-out: IC50); “Not Active” in experiment [3]; “Not Active” in experiment [4]; “Not Active” in experiment [5] (cho); “Not Active” in experiment [6]. The IC50 entry in experiment [7] is “Not Active”. In addition, the Ki entry in experiment [7] was “Not Active”.
Take `NC(=O)N1c2ccccc2C=Cc2ccccc21` [CARBAMAZEPINE]: the half-inhibitory concentration (IC50) result in experiment [1], in experiment [2] (platelet), in experiment [3], in experiment [4], in experiment [5] (cho) and in experiment [6] was “Not Active” in each case. Besides, in experiment [7], the IC50 result is “Not Active”. For the same compound, in experiment [7], the Ki result was “Not Active”.
Take `CCOC(=O)n1ccn(C)c1=S` [CARBIMAZOLE]: the concentration for half-maximal inhibition (IC50) entry in experiment [1], in experiment [2] (platelet), in experiment [3], in experiment [4], in experiment [5] (cho) and in experiment [6] was “Not Active” each time. The IC50 entry in experiment [7] is listed as “Not Active”. Moreover, the Ki result in experiment [7] is recorded as “Not Active”.
On to `Oc1ccccc1O` [CATECHOL], for which the IC50 entry in experiment [1], in experiment [2] (platelet), in experiment [3], in experiment [4], in experiment [5] (cho) and in experiment [6] was “Not Active” in each case. For the same compound, the IC50 entry in experiment [7] is reported as “Not Active”. In experiment [7], the Ki result is “Not Active”.
On to `CO[C@@]1(NC(=O)CSCC#N)C(=O)N2C(C(=O)O)=C(CSc3nnnn3C)CS[C@@H]21` [CEFMETAZOLE], for which the IC50 entry in experiment [1], in experiment [2] (platelet), in experiment [3], in experiment [4], in experiment [5] (cho) and in experiment [6] was “Not Active” throughout. In experiment [7], the IC50 entry is “Not Active”. The Ki result in experiment [7] was “Not Active”.
As for `CN(C(=O)CCCOc1ccc2[nH]c(=O)ccc2c1)C1CCCCC1` [CILOSTAMIDE], the IC50 result in experiment [1], in experiment [2] (platelet), in experiment [3], in experiment [4], in experiment [5] (cho) and in experiment [6] was “Not Active” in each case. Further, in experiment [7], the IC50 entry is given as “Not Active”. Also, the Ki result in experiment [7] was “Not Active”.
Take `CC(C)(Oc1ccc(C2CC2(Cl)Cl)cc1)C(=O)O` (stereo not given) [CIPROFIBRATE]: the IC50 result in experiment [1], in experiment [2] (platelet), in experiment [3], in experiment [4], in experiment [5] (cho) and in experiment [6] was “Not Active” in each case. Also, the IC50 result in experiment [7] was “Not Active”. Also, the Ki entry in experiment [7] is listed as “Not Active”.
